In patent US20190290620A1, “APPLICATIONS OF NOVEL THIAZOLE DERIVATIVE IN TREATING INFLAMMATORY BOWEL DISEASES” (EAST CHINA UNIVERSITY OF SCIENCE AND TECHNOLOGY, priority 2016, published 2019):
Marks after values point to notes of the source that are not given here.

Test system: TNBS-induced ulcerative colitis model mice
Assay: TNBS-induced mice ulcerative colitis model
Type: in vivo, BALB/c male mice
Set-up: key to Scores of gross morphological damages: 0 = no adhesion/ulcer/inflammation, 4+ = severe ulcers (+1 per cm)
Conditions: for Score (body weight index according to the disease activity index, DAI): 0-4 points by weight decrease; for Score (body weight index according to the disease activity index, DAI) / Length of the colon / Weight of the colon / Histopathology scores / Scores of gross morphological damages / weight/length ratio (average) of colon: ig 7 days, sulfasalazine 500 mg/kg; for Score (body weight index according to the disease activity index, DAI) / Length of the colon / Weight of the colon / Histopathology scores / Scores of gross morphological damages / weight/length ratio (average) of colon / Ratio of weight loss: compound 20 mg/kg; for Length of the colon / Weight of the colon: 24 hours after last administration; for Histopathology scores: H&E colon sections, epithelial cells and inflammatory cell infiltration points; for Scores of gross morphological damages: colon adhesion, ulceration, inflammation points; for weight/length ratio (average) of colon: colon weight (g) / length (cm); for Ratio of weight loss: ig daily for 7 days from day of modeling, positive drug sulfasalazine 500 mg/kg, 10 mice per group
Method: BALB/c male mice (each 18-22 g) of SPF level were purchased from Shanghai Slack Laboratory Animal Co., Ltd. and were used in experiments after adaptive feeding for 7 days.
BALB/c male mice were kept in an animal cage (daylight and darkness of 12 hours, respectively) at a temperature of 20-25° C. and relative humidity of 50-60%, free access to food and water.
Mice were randomly divided into normal control group, trinitrobenzenesulfonic acid (TNBS) model group, drug treatment group and positive drug control group (sulfasalazine 500 mg/kg).
All of the mice in model group and administration group were shaved in the abdomen (area 2×2 cm) and sensitized with 1% TNBS (dissolved in 50% ethanol). On the 7th day, the mice were fasted, but not water. After 24 hours, the mice were anesthetized through intraperitoneal injection of 0.1 ml of 10% chloral hydrate and 2% TNBS was used for lavation to establish a mouse model of ulcerative colitis. A gavage needle for rat was inserted into the colon of a mouse, the tip of the needle was about 3˜3.5 cm away from the anus, and 0.1 ml of modeling solution (5% TNBS and deionized water were mixed at a volume ratio of 4:1, and the obtained solution was mixed with absolute ethanol at a volume ratio of 1:1, so as to obtain the modeling solution) was injected. The mice were put back into the cage and wake up naturally. The mice in the normal control group were injected with 0.12 ml of solvent (50% ethanol solution) by the same manner.
Administration was started on the day of modeling (using 0.5% sodium carboxymethylcellulose, CMC-Na) for 7 consecutive days.
At 24 hours after the last administration, the mice were sacrificed by cervical dislocation, the peritoneum was cut open, and the whole colon was taken. The intestine was cut longitudinally along the mesenteric margin, rinsed with ice physiological saline, placed on ice, and the pathological changes of the colon were observed. The fat and mesentery were removed, the water was blotted with filter paper, the weight of the colon was weighed and the length was measured. The colon was fixed in 4% formaldehyde for more than 24 hours, dehydrated, paraffin-embedded and H&E stained, and the pathological sections were observed.
The mice were observed and recorded daily for mental state, fur color, and activities. The mice was weighed daily and observed for the stool traits. The body weight index according to the disease activity index (DAI) is as follows:
After the colon of a mouse was removed, the weight of the colon was measured with a precision electronic balance, the length was measured with a vernier caliper, and the weight/length ratio of the colon was calculated.
The criteria for scores were: no adhesion, no ulcer, no inflammation, 0 points; mild adhesion, local congestion, no ulcer, 1 point; severe adhesion, 1 ulcer (area less than 1 cm), no obvious inflammation, 2 points; more than 1 ulcers (area less than 1 cm) with inflammation, 3 points; 2 severe ulcers (area greater than 1 cm) with inflammation, 4 points; and 1 point for each 1 cm increase in ulcer area.
Pathological changes of colon tissue were observed under light microscope, and the scores were recorded. The criteria for scores are as follows:
1) Epithelial cells: normal morphology, 0 points; loss of goblet cells, 1 point; large loss of goblet cells, 2 points; loss of crypt cells, 3 points; large loss of crypt cells, 4 points.
2) Infiltration of inflammatory cells: no infiltration, 0 points; infiltration in the basal layer of the crypt, 1 point; infiltration to the muscular layer of the mucosa, 2 points; infiltration to the muscular layer of the mucosa with mucosal thickening and obvious edema, 3 points; infiltration to the submucosal layer, 4 points.
Data were expressed as […] (mean±S.E.M.), data were analyzed using SPSS statistical software, and one-way ANOVA and Tukey's HSD post hoc test were used for comparison between groups. p<0.05 was considered statistically significant.

| SMILES | Score (body weight index according to the disease activity index, DAI) | Length of the colon [cm] | Weight of the colon [g] | Histopathology scores | Scores of gross morphological damages | weight/length ratio (average) of colon | Ratio of weight loss | diarrhea of the mice (general condition) (FIG. 2, TNBS-mediated UC model BALB/c mice, Compound 16 in three different dosage groups, sulfasalazine control group) | effect on colonic lesions, comparison of dosages (FIG. 3, 5 mg/kg) | extent of ulcer lesions of colon and visceral adhesions (FIG. 3, compound 312 at 5 mg/kg, 20 mg/kg, 50 mg/kg and positive drugs, vs model group) | histopathology of colon, comparison of dosages (FIG. 4, 5 mg/kg and 50 mg/kg vs 20 mg/kg) | histopathology of colon (HE staining, mucosal integrity / lesions) (FIG. 4, compared with the model group) |
| --- | --- | --- | --- | --- | --- | --- | --- | --- | --- | --- | --- | --- |
| CN(/N=C/c1ccccc1C(=O)O)c1nc(-c2ccccc2Cl)cs1 [Compound 1, (E)-4-(2-chlorophenyl)-2-[1-methyl-2-(2-carboxybenzylidene)hydrazino]thiazole] | 1 | 5.575 ± 0.452 | 0.162 ± 0.027 | 2.54 ± 0.62 | 2.32 ± 0.69 | 0.029# | 2.61 ± 4.53 |  |  |  |  |  |
| CCN(/N=C/c1ccccc1C(=O)O)c1nc(-c2ccccc2Cl)cs1 [Compound 2, (E)-4-(2-chlorophenyl)-2-[1-ethyl-2-(2-carboxybenzylidene)hydrazino]thiazole] | 1 |  |  | 3.10 ± 0.55 | 3.37 ± 0.60 |  | 1.22 ± 3.68 |  |  |  |  |  |
| CCCN(/N=C/c1ccccc1C(=O)O)c1nc(-c2ccccc2Cl)cs1 [Compound 3, (E)-4-(2-chlorophenyl)-2-[1-propyl-2-(2-carboxybenzylidene)hydrazino]thiazole] | 2 | 5.699 ± 0.368 | 0.159 ± 0.023 |  |  | 0.028# | 4.26 ± 4.65 |  |  |  |  |  |
| CN(/N=C/c1ccc(C(F)(F)F)cc1C(=O)O)c1nc(-c2ccccc2Cl)cs1 [Compound 8, (E)-4-(2-chlorophenyl)-2-[1-methyl-2-(4-trifluoromethyl-2-carboxybenzylidene)hydrazino]thiazole] | 1 | 6.005 ± 0.452 | 0.157 ± 0.027 | 1.59 ± 0.68 | 1.42 ± 0.78 | 0.026# | 1.07 ± 2.98 |  |  |  |  |  |
| O=C(O)c1cc(C(F)(F)F)ccc1/C=N/Nc1nc(-c2ccccc2Cl)cs1 [Compound 8-1] | 1 |  |  |  |  |  | 3.72 ± 1.60 |  |  |  |  |  |
| Cc1ccc(/C=N/N(C)c2nc(-c3ccccc3Cl)cs2)c(C(=O)O)c1 [Compound 9, (E)-4-(2-chlorophenyl)-2-[1-methyl-2-(4-methyl-2-carboxybenzylidene)hydrazino]thiazole] | 1 |  |  |  |  |  | 3.29 ± 4.70 |  |  |  |  |  |
| Cc1ccc(/C=N/Nc2nc(-c3ccccc3Cl)cs2)c(C(=O)O)c1 [Compound 9-1] |  | 5.985 ± 0.363 | 0.152 ± 0.023 | 3.94 ± 0.51 | 3.63 ± 0.71 | 0.025# |  |  |  |  |  |  |
| CN(/N=C/c1ccc(F)cc1C(=O)O)c1nc(-c2ccccc2Cl)cs1 [Compound 10, (E)-4-(2-chlorophenyl)-2-[1-methyl-2-(2-carboxyl-4-fluorobenzylidene)hydrazino]thiazole] | 1 | 6.321 ± 0.436 | 0.162 ± 0.045 | 2.09 ± 0.44 | 1.02 ± 0.41 | 0.026# | 1.92 ± 3.20 |  |  |  |  |  |
| Cc1sc(N(C)/N=C/c2ccccc2C(=O)O)nc1-c1ccccc1 [Compound 12, (E)-5-methyl-4-phenyl-2-[11-methyl-2-(2-carboxybenzylidene)hydrazino]thiazole] | 1 | 5.075 ± 0.468 | 0.154 ± 0.012 |  |  | 0.030# | 2.33 ± 2.99 |  |  |  |  |  |
| Cc1sc(N/N=C/c2ccccc2C(=O)O)nc1-c1ccccc1Cl [Compound 15, (E)-5-methyl-4-(2-chlorophenyl)-2-(2-carboxylbenzylidenehydrazino)thiazole] |  | 5.546 ± 0.402 | 0.163 ± 0.023 |  |  | 0.029# |  |  |  |  |  |  |
| O=C(O)c1ccccc1/C=N/Nc1nc(-c2ccccc2Cl)cs1 [Compound 16, (E)-4-(2-chlorophenyl)-2-(2-carboxybenzylidenehydrazino)thiazole] | 1 |  |  | 2.54 ± 0.49 | 2.22 ± 0.54 |  | 3.55 ± 1.47 | relieved compared with the model group | best effect on colonic lesions | can improve the extent of ulcer lesions of colon and visceral adhesions | more effective than those at 20 mg/kg | mucosal integrity was improved to a greater extent |
| Cc1sc(N/N=C/c2ccccc2C(=O)O)nc1-c1ccccc1 [Compound 17, (E)-5-methyl-4-phenyl-2-(2-carboxylbenzylidenehydrazino)thiazole] |  | 5.124 ± 0.332 | 0.159 ± 0.034 |  |  | 0.030# |  |  |  |  |  |  |
| CN(/N=C/c1ccccc1C(=O)O)c1nc(-c2ccccc2)cs1 [Compound 20, (E)-4-phenyl-2-[1-methyl-2-(2-carboxybenzylidene)hydrazino]thiazole] |  |  |  | 3.65 ± 0.42 | 3.33 ± 0.59 |  |  |  |  |  |  |  |
| CN(/N=C/c1ccccc1C(=O)O)c1nc(-c2cccc(Cl)c2)cs1 [Compound 21, (E)-4-(3-chlorophenyl)-2-[1-methyl-2-(2-carboxybenzylidene)hydrazino]thiazole] |  | 4.986 ± 0.452 | 0.158 ± 0.025 | 2.54 ± 0.62 | 2.31 ± 0.79 | 0.032# |  |  |  |  |  |  |
| CN(/N=C/c1cc(F)c(F)cc1C(=O)O)c1nc(-c2ccccc2Cl)cs1 [Compound 23] | 3 | 4.997 ± 0.476 | 0.153 ± 0.027 | 2.32 ± 0.58 | 2.02 ± 0.60 | 0.030# | 6.27 ± 2.76 |  |  |  |  |  |
| O=C(O)c1ccccc1/C=N/Nc1nc(-c2cc(Cl)ccc2Cl)cs1 [Compound 55, (E)-2-((2-(4-(2,5-dichlorophenyl)thiazol-2-yl)hydrazono)methyl)benzoic Acid] | 1 | 5.675 ± 0.222 | 0.148 ± 0.033 | 1.68 ± 0.32 | 1.99 ± 0.52 | 0.026# | 2.74 ± 4.61 |  |  |  |  |  |
| O=C(O)c1c(F)cccc1/C=N/Nc1nc(-c2ccccc2Cl)cs1 [Compound 58, (E)-2-((2-(4-(2-chlorophenyl)thiazol-2-yl)hydrazono)methyl)-6-fluorobenzoic Acid] |  | 5.575 ± 0.392 | 0.162 ± 0.028 | 3.59 ± 0.61 | 4.32 ± 0.79 | 0.029# |  |  |  |  |  |  |
